Results taken from patent publication US20070173488A1, “Pyrazolothiazole Protein Kinase Modulators” (SGX Pharmaceuticals, Inc., priority 2005, published 2007).

What was measured:
HCT116 cells = test: 96-well XTT cell survival assay (HCT116 cells); format: cell-based; settings: Homo sapiens, HCT-116, 72 hours
Description: HCT116 cells were maintained in McCoy's 5a Medium supplemented with 10% fetal bovine serum (FBS) 2 mM L-Glutamine and 100 units penicillin/100 μg streptomycin, at 37° C. in 5% CO2.
(§1) Compounds were tested in the following assays in duplicate.
96-well XTT assay (HCT116 cells): Cells were grown in growth media containing various concentrations of compounds (duplicates) on a 96-well flat bottom plate for 72 hours at 37° C. in 5% CO2. The starting cell number was 5000 cells per well and volume was 120 μl. At the end of the 72-hour incubation, 40 μl of XTT labeling mixture (50:1 solution of sodium 3′-[1-(phenylaminocarbonyl)-3,4-tetrazolium]-bis (4-methoxy-6-nitro) benzene sulfonic acid hydrate and Electron-coupling reagent: PMS (N-methyl dibenzopyrazine methyl sulfate) were added to each well of the plate. After an additional 2-6 hours of incubation at 37° C., the absorbance reading at 650 nm was measured with a spectrophotometer.

T315I Ba/F3 = target: T1, T315I Ba/F3 (Homo sapiens, UniProt P00519, T315I, cells depend on it, form not given); test: 96-well XTT cell survival assay (Ba/F3 cells); format: cell-based; settings: 72 hours, read-out: T315I Ba/F3 XTT IC50
T1 construct: The candidate is BCR (P11274) N-terminal part, as in Bcr-Abl p210 or p185
Description: Ba/F3 cells were maintained in RPMI 1640 supplemented with 10% FBS, penicillin/streptomycin and 5 ng/ml recombinant mouse IL-3.
as §1
96-well XTT assay (Ba/F3 cells): Cells were grown in growth media containing various concentrations of compounds (duplicates) on a 96-well plate for 72 hours at 37° C. The starting cell number was 5000-8000 cells per well and volume was 120 μl. At the end of the 72-hour incubation, 40 μl of XTT labeling mixture (50:1 solution of sodium 3′-[1-(phenylamino-carbonyl)-3,4-tetrazolium]-bis (4-methoxy-6-nitro) benzene sulfonic acid hydrate and Electron-coupling reagent: PMS (N-methyl dibenzopyrazine methyl sulfate) were added to each well of the plate. After an additional 2-6 hours of incubation at 37° C., the absorbance reading at 405 nm with background correction at 650 nm was measured with a spectrophotometer.

Compound	IC50 (HCT116 cells)	GI50 (T315I Ba/F3)
O=C(Nc1nc2[nH]nc(-n3cncc3-c3c(Cl)cccc3Cl)c2s1)C1CC1 [Cyclopropanecarboxylic acid {3-[5-(2,6-dichloro-phenyl)-imidazol-1-yl]-1H-pyrazolo[3,4-d]thiazol-5-yl}-amide]	0.1 to 1 µM	0.1 to 1 µM
O=C(Nc1nc2[nH]nc(-n3cncc3-c3ccccn3)c2s1)C1CC1 [Cyclopropanecarboxylic acid [3-(5-pyridin-2-yl-imidazol-1-yl)-1H-pyrazolo[3,4-d]thiazol-5-yl]-amide]	0.1 to 1 µM	1 to 10 µM
O=C(Nc1nc2[nH]nc(-n3cncc3-c3ccccc3)c2s1)C1CC1 [Cyclopropanecarboxylic acid [3-(5-phenyl-imidazol-1-yl)-1H-pyrazolo[3,4-d]thiazol-5-yl]-amide]	0.1 to 1 µM	0.1 to 1 µM
O=C(Nc1nc2[nH]nc(-n3cncc3-c3ccccc3Cl)c2s1)C1CC1 [Cyclopropanecarboxylic acid {3-[5-(2-chloro-phenyl)-imidazol-1-yl]-1H-pyrazolo[3,4-d]thiazol-5-yl}-amide]	0.1 to 1 µM	0.1 to 1 µM
O=C(Nc1nc2[nH]nc(-n3cncc3-c3cccc(F)c3F)c2s1)C1CC1 [Cyclopropanecarboxylic acid {3-[5-(2,3-difluoro-phenyl)-imidazol-1-yl]-1H-pyrazolo[3,4-d]thiazol-5-yl}-amide]	0.1 to 1 µM	0.1 to 1 µM
O=C(Nc1nc2[nH]nc(-n3cncc3-c3c(Cl)ccc(Cl)c3Cl)c2s1)C1CC1 [Cyclopropanecarboxylic acid {3-[5-(2,3,6-trichloro-phenyl)-imidazol-1-yl]-1H-pyrazolo[3,4-d]thiazol-5-yl}-amide]	1 to 10 µM	0.1 to 1 µM
O=C(Nc1cc[nH]n1)Nc1nc2[nH]nc(-n3cncc3-c3ccccc3Cl)c2s1 [1-{3-[5-(2-Chloro-phenyl)-imidazol-1-yl]-1H-pyrazolo[3,4-d]thiazol-5-yl}-3-(1H-pyrazol-3-yl)-urea]	0.1 to 1 µM	
